Assay results reported in patent publication US5656308A, “Non-reducing oligosaccharide with neotrehalose structure, and its production and uses” (Kabushiki Kaisha Hayashibara Seibutsu Kagaku Kenkyujo, priority 1993, dated 1997).

Test system: mice
Test: Acute toxicity in mice upon oral administration
Type: in vivo
Experimental: High-purity β-maltosyl α-glucoside, α-maltosyl β-glucoside, β-maltotriosyl α-glucoside, α-maltotriosyl β-glucoside and β-maltosyl α-maltoside prepared by the method in Experiment 2 were tested for acute toxicity in mice upon oral administration.

Row | Structure (SMILES) | acute toxicity (in words) | death with maximum administrable dose
1 | OC[C@H]1O[C@@H](O[C@H]2O[C@H](CO)[C@@H](O[C@H]3O[C@H](CO)[C@@H](O)[C@H](O)[C@H]3O)[C@H](O)[C@H]2O)[C@H](O)[C@@H](O)[C@@H]1O [α-maltosyl β-glucoside, O-α-D-glucopyranosyl-(1→4)-α-D-glucopyranosyl β-D-glucopyranoside] | less toxic | no death was observed
2 | OC[C@H]1O[C@@H](O[C@H]2O[C@H](CO)[C@@H](O[C@H]3O[C@H](CO)[C@@H](O[C@H]4O[C@H](CO)[C@@H](O)[C@H](O)[C@H]4O)[C@H](O)[C@H]3O)[C@H](O)[C@H]2O)[C@H](O)[C@@H](O)[C@@H]1O [α-maltotriosyl β-glucoside, O-α-D-gluco- pyranosyl-(1→4)-O-α-D-glucopyranosyl-(1→4)-α-D-glucopyranosyl β-D-glucopyranoside] | less toxic | no death was observed
3 | OC[C@H]1O[C@H](O[C@@H]2O[C@H](CO)[C@@H](O[C@H]3O[C@H](CO)[C@@H](O)[C@H](O)[C@H]3O)[C@H](O)[C@H]2O)[C@H](O)[C@@H](O)[C@@H]1O [β-maltosyl α-glucoside, O-α-D-glucopyranosyl-(1→4)-β-D-glucopyranosyl α-D-glucopyranoside] | less toxic | no death was observed
4 | OC[C@H]1O[C@H](O[C@H]2[C@H](O)[C@@H](O)[C@H](O[C@H]3O[C@H](CO)[C@@H](O[C@H]4O[C@H](CO)[C@@H](O)[C@H](O)[C@H]4O)[C@H](O)[C@H]3O)O[C@@H]2CO)[C@H](O)[C@@H](O)[C@@H]1O [β-maltosyl α-maltoside, O-α-D-glucopyranosyl-(1→4)-β-D-glucopyranosyl α-D-maltoside] | less toxic | no death was observed
5 | OC[C@H]1O[C@H](O[C@@H]2O[C@H](CO)[C@@H](O[C@H]3O[C@H](CO)[C@@H](O[C@H]4O[C@H](CO)[C@@H](O)[C@H](O)[C@H]4O)[C@H](O)[C@H]3O)[C@H](O)[C@H]2O)[C@H](O)[C@@H](O)[C@@H]1O [β-maltotriosyl α-glucoside, O-α-D-glucopyranosyl-(1→4)-O-α-D-glucopyranosyl-(1→4)-β-D-glucopyranosyl α-D-glucopyranoside] | less toxic | no death was observed
